Activity calls are given as the source filed them.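 The calls were made as follows: active = inhibition of probe labeling in the gel above a set limit; inactive = inhibition at or below that limit.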

Broadly, the inhibition is the percentage by which the read-out fell short of the control.

The target of this test is Prolyl endopeptidase-like (Mus musculus) (UniProt Q8C167). The test can be described thus: mouse PREPL activity blockade, proteome background – biochemical, gel-based competitive ABPP, fluorescence, assay provider (AID 624480). Conditions: mouse brain proteome spiked PREPL, FP-Rh gel ABPP; at 50 µM; active compounds read high.
Prolyl endopeptidase-like (Mus musculus), sequence (Q8C167 whole entry, looked up): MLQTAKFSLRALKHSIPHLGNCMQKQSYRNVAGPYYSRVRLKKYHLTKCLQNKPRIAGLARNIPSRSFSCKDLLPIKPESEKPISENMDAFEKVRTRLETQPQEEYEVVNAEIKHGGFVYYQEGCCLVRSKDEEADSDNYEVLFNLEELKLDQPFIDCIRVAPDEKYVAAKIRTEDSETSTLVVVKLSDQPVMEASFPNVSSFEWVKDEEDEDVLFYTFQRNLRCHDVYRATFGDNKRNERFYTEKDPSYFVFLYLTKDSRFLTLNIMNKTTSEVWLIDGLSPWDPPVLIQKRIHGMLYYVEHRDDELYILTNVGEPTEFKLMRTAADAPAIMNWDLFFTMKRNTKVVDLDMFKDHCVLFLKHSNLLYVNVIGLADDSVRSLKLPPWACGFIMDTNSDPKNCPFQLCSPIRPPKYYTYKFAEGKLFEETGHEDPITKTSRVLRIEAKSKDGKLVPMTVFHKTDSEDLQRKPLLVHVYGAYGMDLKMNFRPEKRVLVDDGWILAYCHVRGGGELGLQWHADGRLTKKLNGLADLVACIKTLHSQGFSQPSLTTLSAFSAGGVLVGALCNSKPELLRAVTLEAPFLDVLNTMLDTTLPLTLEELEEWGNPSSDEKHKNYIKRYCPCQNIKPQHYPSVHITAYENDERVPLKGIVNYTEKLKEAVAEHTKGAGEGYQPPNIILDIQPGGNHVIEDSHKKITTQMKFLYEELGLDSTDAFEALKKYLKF

Consider `CC(C)Cc1[nH]c(=O)c(C#N)c2c1CCC2`, for which the inhibition is 70%.

Regarding `N#Cc1c2c(c(-c3ccccc3)[nH]c1=O)CCCC2`, the inhibition was 41%.

In the case of `COc1cc2nc(Nc3ccc(C)c(C)c3)nc(N)c2cc1OC`, the inhibition is 17% (inactive).

For the compound `O=C(Nc1ccc2c(c1)OCCO2)c1cccc2nc3ccccc3nc12`, the inhibition is 15% (inactive).

As to `CCOc1ccc(CCNC(=O)c2ccc3c(=O)[nH]c4c(C(=O)NC(C)C)sc(=S)n4c3c2)cc1`, the inhibition was 25%.

Source of the values: PubChem BioAssay AID624480 (The Scripps Research Institute Molecular Screening Center, 2012).
